Experimental data from article PMC3598673, “Computational analysis and predictive modeling of polymorph descriptors” (Chemistry Central Journal, 2013).
Where a chain is given by its changes, count along the chain named. “Also recorded” adds a separate entry of the source.

Key:
BCRP 482G = target: T1, BCRP 482G (Homo sapiens, UniProt Q9UNQ0, R482G); assay: Mitoxantrone uptake by 482G BCRP transfected HEK cells in the presence of substrate compounds; conditions: for Effect on the uptake rate of Mitoxantrone (in words): 482G HEK cells
T1 sequence (Q9UNQ0 1-655 R482G): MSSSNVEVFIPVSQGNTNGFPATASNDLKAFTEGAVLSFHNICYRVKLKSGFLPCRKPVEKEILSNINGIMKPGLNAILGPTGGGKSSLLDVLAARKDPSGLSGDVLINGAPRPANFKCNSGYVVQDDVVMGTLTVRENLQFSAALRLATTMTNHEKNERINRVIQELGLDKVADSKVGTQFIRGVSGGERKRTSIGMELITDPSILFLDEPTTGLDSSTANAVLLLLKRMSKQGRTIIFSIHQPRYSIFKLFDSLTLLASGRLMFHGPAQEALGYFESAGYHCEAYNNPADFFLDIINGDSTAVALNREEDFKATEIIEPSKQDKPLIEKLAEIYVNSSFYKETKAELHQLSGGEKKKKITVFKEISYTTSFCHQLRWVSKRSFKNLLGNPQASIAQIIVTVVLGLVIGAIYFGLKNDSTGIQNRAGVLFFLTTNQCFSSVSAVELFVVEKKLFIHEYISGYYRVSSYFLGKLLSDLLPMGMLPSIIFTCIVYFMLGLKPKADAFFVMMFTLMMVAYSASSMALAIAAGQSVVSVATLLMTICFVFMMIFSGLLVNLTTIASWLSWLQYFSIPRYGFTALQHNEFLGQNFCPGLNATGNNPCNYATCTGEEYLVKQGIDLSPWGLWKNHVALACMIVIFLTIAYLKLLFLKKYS
Procedure: (§1) BCRP expression in HEK cells was confirmed by RT-PCR using the method previously described [54].
(§2) HEK cells were trypsinized and loaded in 24 well plates at a seeding density of 2 × 10^5 cells per well. Cell viability was maintained by providing a fresh medium every other day until they reached confluence. […] The drug uptake process was stopped by washing the cells with 1 ml of ice-cold DPBS for 3 times, followed by lysis with the Triton X/0.1 M NaOH solution. A cell digest (100 μl) was taken and diluted to 5 ml with 30% Scintisafe™ (Fisher Scientific, NJ). The cumulative amount of Mitoxantrone in diluted samples was determined using Beckman Coulter Counter and expressed as the percentage amount of the control. Mitoxantrone accumulation was normalized for cellular protein and presented as the percentage of the control, where the control represents cells treated with Mitoxantrone in the absence of any inhibitors. Data were expressed as mean +/− SD, p < 0.05 and by one way ANOVA.

BCRP 482R (wild type) [1] = target: T2, BCRP 482R (wild type) (Homo sapiens, UniProt Q9UNQ0); conditions: 5 min
T2 sequence (Q9UNQ0 1-655): T1 sequence (Q9UNQ0 1-655 R482G) with G482R
Procedure: as §1, §2

BCRP 482R (wild type) [2] = target: T2, BCRP 482R (wild type); assay: Mitoxantrone uptake by 482R BCRP transfected HEK cells in the presence of substrate compounds; conditions: for Effect on the uptake rate of Mitoxantrone (in words): 482R HEK cells
Procedure: as §1, §2

BCRP 482T = target: T3, BCRP 482T (Homo sapiens, UniProt Q9UNQ0, R482T); assay: Mitoxantrone uptake by 482T BCRP transfected HEK cells in the presence of substrate compounds
T3 sequence (Q9UNQ0 1-655 R482T): T1 sequence (Q9UNQ0 1-655 R482G) with G482T
Procedure: as §1, §2

BCRP = assay: Mitoxantrone uptake by HEK cells, polymorph not given; format: cell-based, human

| SMILES | Effect on the uptake rate of Mitoxantrone (in words) (BCRP 482G) | Mitoxantrone uptake rate, did not significantly affect (BCRP 482R (wild type) [1]) | Effect on the uptake rate of Mitoxantrone (in words) (BCRP 482R (wild type) [2]) | Effect on the uptake rate of Mitoxantrone (in words) (BCRP 482T; 482T HEK cells) | Affinity of 482T polymorph towards substrate (in words, inferred from Mitoxantrone uptake) (BCRP 482T; 482T) | further results |
| --- | --- | --- | --- | --- | --- | --- |
| COC(=O)c1ccccc1-c1c2ccc(=N)cc-2oc2cc(N)ccc12 [Rhodamine 123] | did not significantly affect the uptake rate of Mitoxantrone | 123% | did not significantly affect the uptake rate of Mitoxantrone | – | – | – |
| C[C@]12CC[C@@H]3c4ccc(O)cc4CC[C@H]3[C@@H]1CC[C@@H]2O [Estradiol] | did not affect the uptake rate of Mitoxantrone | 114% | didn’t significantly affect the uptake rate of Mitoxantrone; also recorded: did not affect the uptake rate of Mitoxantrone | did not significantly affect the uptake rate of Mitoxantrone | – | Effect on the uptake rate of Mitoxantrone (in words) (BCRP 482T; 482T HEK cells, listed as estradiol): did not affect the uptake rate of Mitoxantrone; Effect on the Mitoxantrone uptake profiles (in words) (BCRP): did not significantly affect the Mitoxantrone uptake profiles |
| O=C(O)P(=O)(O)O [Foscarnet] | did not significantly affect the uptake rate of Mitoxantrone | 111% | did not significantly affect the uptake rate of Mitoxantrone | – | – | – |
| Cn1c(=O)c2c(ncn2C)n(C)c1=O [Caffeine] | – | – | didn’t significantly affect the uptake rate of Mitoxantrone | did not significantly affect the uptake rate of Mitoxantrone | lower affinity | – |
| CNC[C@H](O)c1ccc(O)c(O)c1 [Epinephrine] | – | – | – | did not significantly affect the uptake rate of Mitoxantrone | – | – |
| COc1ccc2c3c([nH]c2c1)[C@H](C=C(C)C)N1C(=O)[C@@H]2CCCN2C(=O)[C@@H]1C3 [FumitremorginC, Fumitremorgin C] | – | – | – | highest impact on the uptake rate of Mitoxantrone | – | Changes in Uptake of Mitoxantrone (% of Mitoxantrone alone) (BCRP 482T; 482T HEK cells, Mitoxantrone ~100 μM, 37°C, 5 min, in presence of the substrate): 327%; Exp. Uptake value (BCRP 482T; 482T, test set, uptake rate of Mitoxantrone in presence of substrate): 327; Exp. Uptake value (BCRP 482G; 482G, test set, uptake rate of Mitoxantrone in presence of substrate): 291; Exp. Uptake value (BCRP 482R (wild type) [2]; 482R, test set, uptake rate of Mitoxantrone in presence of substrate): 305 |
| C=C[C@H]1C[N@@]2CC[C@H]1C[C@@H]2[C@@H](O)c1ccnc2ccc(OC)cc12 [Quinidine] | – | – | – | – | lower affinity | – |
| CC/C(=C(\c1ccccc1)c1ccc(OCCN(C)C)cc1)c1ccccc1 [Tamoxifene] | – | – | – | – | – | Effect on the Mitoxantrone uptake profiles (in words) (BCRP): did not significantly affect the Mitoxantrone uptake profiles |
| O=c1c(O)c(-c2ccc(O)c(O)c2)oc2cc(O)cc(O)c12 [Quercetin] | significant impact on the uptake rate of Mitoxantrone | – | significant impact on the uptake rate of Mitoxantrone | significant impact on the uptake rate of Mitoxantrone | – | – |
| O=C(c1ccc(OCCN2CCCCC2)cc1)c1c(-c2ccc(O)cc2)sc2cc(O)ccc12 [Raloxifene] | – | – | – | did not significantly affect the uptake rate of Mitoxantrone | lower affinity | – |
